# From paper PMC2844711 (The Journal of neuroscience : the official journal of the …, 2010)
# Target: GluA4 (Rattus norvegicus, UniProt P19493, L505Y/L672V)
# Assay: whole-cell patch clamp in tsA201 cells, agonist dose-response
# Assay type: cell-based
# Chain of GluA4 (P19493 21-902 L505Y/L672V): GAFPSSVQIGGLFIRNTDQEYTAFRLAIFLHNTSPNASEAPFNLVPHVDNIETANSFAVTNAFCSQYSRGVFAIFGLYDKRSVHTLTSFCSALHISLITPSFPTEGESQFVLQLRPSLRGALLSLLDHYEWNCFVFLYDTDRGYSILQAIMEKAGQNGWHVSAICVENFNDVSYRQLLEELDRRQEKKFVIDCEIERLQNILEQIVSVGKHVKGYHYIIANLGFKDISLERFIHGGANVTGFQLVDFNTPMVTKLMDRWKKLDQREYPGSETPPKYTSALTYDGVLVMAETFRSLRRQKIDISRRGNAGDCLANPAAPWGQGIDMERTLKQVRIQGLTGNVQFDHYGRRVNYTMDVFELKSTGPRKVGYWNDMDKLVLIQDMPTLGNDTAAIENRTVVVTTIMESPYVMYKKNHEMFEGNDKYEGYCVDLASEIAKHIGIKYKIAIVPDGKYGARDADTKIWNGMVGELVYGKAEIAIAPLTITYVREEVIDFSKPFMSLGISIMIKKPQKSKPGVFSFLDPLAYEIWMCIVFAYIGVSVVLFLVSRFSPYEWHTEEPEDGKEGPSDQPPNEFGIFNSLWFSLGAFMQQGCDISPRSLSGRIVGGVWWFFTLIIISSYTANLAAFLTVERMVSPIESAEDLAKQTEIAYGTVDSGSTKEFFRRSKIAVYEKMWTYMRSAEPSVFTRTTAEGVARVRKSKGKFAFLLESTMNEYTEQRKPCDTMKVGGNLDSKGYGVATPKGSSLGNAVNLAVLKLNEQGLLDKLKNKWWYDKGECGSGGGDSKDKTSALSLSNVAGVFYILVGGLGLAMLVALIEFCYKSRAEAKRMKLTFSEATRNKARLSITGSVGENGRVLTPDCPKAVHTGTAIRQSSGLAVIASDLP
smiles,measurement,value
"C=C(C)[C@H]1CN[C@H](C(=O)O)[C@H]1CC(=O)O [KA, kainate]",EC50,324 ± 35 µM
